Patent US5705649A, “Protein staining compositions and methods” (Promega Corporation, priority 1995, dated 1998)

Columns and labels:
[1] = tested on: Promega Mid-Range Molecular Weight Standards; assay: Quantitation of proteins separated by SDS-PAGE, sensitivity overall; settings: extracted bands
Description: A 10% SDS-PAGE gel was made as described in the Example 5. Promega Mid-Range Molecular Weight Standards were diluted into loading buffer to produce solutions containing 2.0, 1.0, 0.5, and 0.25 μg of protein per band in 5 μl of solution. Duplicate 5 μl solutions of each of these solutions were loaded into 1 of the 10 sample wells in the gel after the solutions were heated at 95° C. for 10 minutes. The gel was then electrophoresed at 160 V until the running dye just eluted from the bottom of the gel. The gel was destained, and signal from stained protein enhanced, for 90 minutes in 30% methanol, 4% acetic acid.
One of the pair of duplicate bands for the 97.4, 66.2, 55.0 and 42.7 kilodalton standards from the lanes containing 2.0, 1.0, 0.5, and 0.25 μg of protein per band were excised with a razor blade as were two control gel segments from regions of the gel not containing protein. The excised segments were placed in individual 1.5 ml Eppendorf tubes containing 2% SDS and allowed to incubate at room temperature for 72 hours. After this time, the solutions were removed from the extracted segments and acetic acid was added to 2% (v/v) final concentration. The absorption of the solutions at […] was then measured.

[2] = tested on: bovine serum albumin (BSA); assay: Staining in polyacrylamide gels not containing SDS; settings: 50 mM Tris-HCl pH 8.0
Description: (§1) A polyacrylamide gel was made containing a 10% separating gel and a 3% stacking gel having 50 mM Tris-HCl pH 8.0 as a buffer. A sample loading solution was made containing Promega Green 1 dissolved in 50 mM Tris-HCl, pH 8.0, 20% glycerol. Samples of bovine serum albumin (BSA) and carbonic anhydrase were added to the sample buffer. The samples were loaded onto the gel and the gel was assembled into a BioRad miniprotean II gel system. An electrode buffer solution of 50 mM Tris pH 8.0 was used to fill the buffer chamber and a voltage of 150 volts was applied to the apparatus. […] Therefore, the stain need not be used only in systems containing SDS.

[3] = tested on: carbonic anhydrase; assay: Staining in polyacrylamide gels not containing SDS; settings: 50 mM Tris-HCl pH 8.0
Description: as §1

[4] = Spectral analyses of Coomassie Blue R and Promega Green 1, 2, 3; assay type: physicochemical
Description: The three solutions of Promega Green 1, 2, and 3, from examples 1, 2 and 3 respectively, were diluted approximately 500 fold into a 1:1 solution of methanol:water. The spectra of the resulting solutions and of a 12 μg/ml solution of Coomassie Blue R (in 1:1 methanol:water) were recorded from 700 to 340 nm versus 1:1 methanol:water. […] All of the derivatives gave essentially identical spectra; however, the maximal absorbance of the diluted Promega Green i was about twice that seen for the other derivatives. The derivatives had two peak absorptions in the region of the spectrum scanned, a major peak at around 630 nm and a second peak at around 440 nm. The following absorbances were recorded at the peaks near 630 nm for the three Promega Green dye solutions (diluted 1:500 in 1:1 methanol:water): […]

Q: With `CCCCCCCC(=O)N(c1ccc(OCC)cc1)c1ccc(C(=C2C=CC(=[N+](CC)Cc3cccc(S(=O)(=O)[O-])c3)C=C2)c2ccc(N(CC)Cc3cccc(S(=O)(=O)O)c3)cc2)cc1` [Promega Green 1] as the compound, how does the “lowest amount of protein measured quantitatively” value [1] read?
A: The value was 250 ng.

Q: What about the “staining of BSA in gel without SDS” value [2] of the same compound?
A: Its value is “seen to migrate through the gel as stained bands”.

Q: And the “staining of carbonic anhydrase in gel without SDS” value [3]?
A: Its value is “seen to migrate through the gel as stained bands”.

Q: And the “Absorbance at the peak near 630 nm” value ([4]; diluted 1:500 in 1:1 methanol:water)?
A: Its value is 1.66.

Q: What about the “maximal absorbance relative to the other derivatives” value ([4]; diluted approximately 500 fold) of the same compound?
A: The value was “about twice”.
